The values that follow come from patent US10494363B2, “Non-steroidal glucocorticoid receptor modulators for local drug delivery” (LEO PHARMA A/S, priority 2015, dated 2019).

Data set [1] has as its system TNF alpha release from human PBMCs. The experiment in a line: Inhibition of TNF alpha release from human PBMCs. The format is cell-based. The note with it: PBMC, LPS 1 μg/ml, 18 hours, AlphaLISA. Here is the method:
PBMC were isolated from fresh buffy coats by density centrifugation using lymphoprep (Medinor AB, cat no 1019818) tubes. Isolated PBMCs were washed in assay medium (RPMI1640 with 25 mM HEPES, 1% pen/strep, 200 mM L glutamine and 10% Foetal calf serum). Surplus PBMCs were frozen in medium containing extra 10% foetal calf serum and 5% DMSO. On the assay day, fresh cells or cryopreserved cells after thawing were washed in serum free medium (RPMI1640 with 25 mM HEPES, 1% pen/strep, 200 mM L glutamine and 0.5% human serum albumin) and counted, in order to determine the fraction of living cells (generally >95%).
Test compounds were diluted in DMSO over seven orders of magnitude, further diluted in serum-free medium and distributed into wells of 384 well tissue culture plates. LPS was added to a final concentration of 1 μg/ml to the cells. Immediately thereafter titrated test compounds were added and incubated for 18 hours at 37° C.
The level of TNF-a in the culture supernatant was quantitated by AlphaLISA (Perkin Elmer). 2-(3,5-dichloro-4-pyridinyl)-1-(7-methoxyspiro[1,3-benzodioxole-2,1′-cyclopentan]-4-yl)-ethanone (CAS 185406-34-2) at 100×IC50 was used to define the assay window.
Data were processed by sigmoidal curve fitting. EC50 and Emax were determined from the curve fits.

Data set [2] can be described thus: Human liver microsomes (HLM) assay. To be noted: hepatic extraction ratio; 0.5 μM compound, 0.5 mg/mL microsomes, NADPH, 37° C. The format is in vitro ADME. Here is the method:
Incubations of test compounds in DMSO, diluted with phosphate buffer, pH 7.4, at 0.5 μM were carried out with human liver microsomes (0.5 mg/mL). The percentage of organic solvent in the incubations was 1%. The human liver microsomal suspension in phosphate buffer was mixed with NADPH (1 mM) and preheated to 37° C. before test compound was added. Aliquots were taken at 0, 5, 10, 20 and 30 minutes, and reactions were terminated by addition of methanol containing analytical internal standard (IS).
The results were expressed as apparent clearance (Clapp) (mL/min/kg) and hepatic extraction ratio (Eh) (%) calculated from the rate constant (k) (min^−1) of test compound depletion.

In data set [3] the target is T1, glucocorticoid receptor (GR), recombinant full-length receptor protein (Homo sapiens, UniProt P04150).
T1 construct: 4 nM recombinant, full-length receptor protein was incubated with increasing concentrations of GR ligand; purchased Life Technologies A-15897
T1 sequence (P04150 1-777): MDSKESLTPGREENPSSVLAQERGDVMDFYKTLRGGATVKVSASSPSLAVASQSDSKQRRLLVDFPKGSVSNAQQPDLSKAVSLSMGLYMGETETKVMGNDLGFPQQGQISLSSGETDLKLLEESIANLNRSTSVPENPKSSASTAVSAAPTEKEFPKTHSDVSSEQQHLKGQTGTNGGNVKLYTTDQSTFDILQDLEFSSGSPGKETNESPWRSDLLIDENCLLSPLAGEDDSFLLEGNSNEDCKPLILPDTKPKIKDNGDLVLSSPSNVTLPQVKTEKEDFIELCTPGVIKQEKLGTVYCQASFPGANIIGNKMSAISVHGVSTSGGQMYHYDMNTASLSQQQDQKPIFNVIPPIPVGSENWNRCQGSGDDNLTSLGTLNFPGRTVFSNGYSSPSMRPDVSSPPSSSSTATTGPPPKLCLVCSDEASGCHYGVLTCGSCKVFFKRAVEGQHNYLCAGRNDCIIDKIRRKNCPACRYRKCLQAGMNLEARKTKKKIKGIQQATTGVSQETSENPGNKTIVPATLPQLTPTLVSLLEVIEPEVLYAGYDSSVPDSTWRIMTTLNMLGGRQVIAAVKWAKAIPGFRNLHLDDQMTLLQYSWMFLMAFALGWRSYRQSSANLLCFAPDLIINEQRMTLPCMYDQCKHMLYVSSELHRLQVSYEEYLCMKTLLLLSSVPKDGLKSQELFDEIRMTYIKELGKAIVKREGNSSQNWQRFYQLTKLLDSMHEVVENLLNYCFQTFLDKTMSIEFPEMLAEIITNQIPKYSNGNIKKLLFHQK
The experiment in a line: Glucocorticoid receptor binding assay (fluorescence polarization kit). The note with it: 4 nM receptor, 2.5 nM Fluormone GS1 tracer, 2h room temperature, read-out: GR binding ABS IC50. Here is the method:
Test compounds were diluted in DMSO over seven orders of magnitude, further diluted in assay buffer and distributed into 384-well plates. The sensitivity limit of this assay was 2-4 nM.
Data were processed by sigmoidal curve fitting.
Absolute (Abs) IC50 and Emax were determined from the curve fits.

As for `Cc1ccc([C@@H](Oc2ccc(C(=O)N[C@H]3CCCN(C(=O)[C@H]4COC(=O)C4)C3)nc2)[C@H](C)NC(=O)C(F)(F)F)cc1` [Compound 1, N-[(3S)-1-[(3R)-5-oxotetrahydrofuran-3-carbonyl]-3-piperidyl]-5-[(1R,2S)-1-(p-tolyl)-2-[(2,2,2-trifluoroacetyl)amino]propoxy]pyridine-2-carboxamide], in data set [1], the EC50 was under 100 nM. Also, the “HLM assay Eh (%)” value in data set [2] is listed as “* (extraction ratio (Eh)>90%)”.

Consider `C[C@H](NC(=O)C(F)(F)F)[C@H](Oc1ccc(C(=O)N[C@H]2CCCN(C(=O)[C@H]3COC(=O)C3)C2)nc1)c1ccc(C2CC2)cc1` [Compound 2, 5-[(1R,2S)-1-(4-cyclopropylphenyl)-2-[(2,2,2-trifluoroacetyl)amino]propoxy]-N-[(3S)-1-[(3R)-5-oxotetrahydrofuran-3-carbonyl]-3-piperidyl]pyridine-2-carboxamide], for which the EC50 in data set [1] was under 100 nM. In data set [2], the “HLM assay Eh (%)” value is “* (extraction ratio (Eh)>90%)”. Besides, the IC50 in data set [3] is under 100 nM.

In data set [1], `C[C@H](NC(=O)C(C)(F)F)[C@H](Oc1ccc(C(=O)N[C@H]2CCCN(C(=O)[C@H]3COC(=O)C3)C2)nc1)c1ccc(C2CC2)cc1` [Compound 3, 5-[(1R,2S)-1-(4-cyclopropylphenyl)-2-(2,2-difluoropropanoylamino)propoxy]-N-[(3S)-1-[(3R)-5-oxotetrahydrofuran-3-carbonyl]-3-piperidyl]pyridine-2-carboxamide] registered an EC50 of under 100 nM. Besides, the “HLM assay Eh (%)” value in data set [2] is “* (extraction ratio (Eh)>90%)”. The IC50 in data set [3] was under 100 nM.

In data set [1], `C[C@H](NC(=O)c1ccsn1)[C@H](Oc1ccc(C(=O)N[C@H]2CCCN(C(=O)[C@H]3COC(=O)C3)C2)nc1)c1ccc(C2CC2)cc1` [Compound 4, N-[(1S,2R)-2-(4-cyclopropylphenyl)-1-methyl-2-[[6-[[(3S)-1-[(3R)-5-oxotetrahydrofuran-3-carbonyl]-3-piperidyl]carbamoyl]-3-pyridyl]oxy]ethyl]isothiazole-3-carboxamide] had an EC50 of under 100 nM. Moreover, the “HLM assay Eh (%)” value in data set [2] is “* (extraction ratio (Eh)>90%)”. The half-inhibitory concentration (IC50) in data set [3] is under 100 nM.

Turning to `C[C@H](NC(=O)c1ccns1)[C@H](Oc1ccc(C(=O)N[C@H]2CCCN(C(=O)[C@H]3COC(=O)C3)C2)nc1)c1ccc(C2CC2)cc1` [Compound 5, N-[(1S,2R)-2-(4-cyclopropylphenyl)-1-methyl-2-[[6-[[(3S)-1-[(3R)-5-oxotetrahydrofuran-3-carbonyl]-3-piperidyl]carbamoyl]-3-pyridyl]oxy]ethyl]isothiazole-5-carboxamide], the 50% effective concentration (EC50) in data set [1] was under 100 nM. In addition, in data set [2], the “HLM assay Eh (%)” value is recorded as “* (extraction ratio (Eh)>90%)”. Besides, in data set [3], the IC50 is under 100 nM.

In turn, `C[C@H](NC(=O)c1ncco1)[C@H](Oc1ccc(C(=O)N[C@H]2CCCN(C(=O)[C@H]3COC(=O)C3)C2)nc1)c1ccc(C2CC2)cc1` [Compound 6, N-[(1S,2R)-2-(4-cyclopropylphenyl)-1-methyl-2-[[6-[[(3S)-1-[(3R)-5-oxotetrahydrofuran-3-carbonyl]-3-piperidyl]carbamoyl]-3-pyridyl]oxy]ethyl]oxazole-2-carboxamide] yielded a concentration giving a half-maximal response (EC50) in data set [1] of under 100 nM. The “HLM assay Eh (%)” value in data set [2] is on record as “* (extraction ratio (Eh)>90%)”. Also, the IC50 in data set [3] is under 100 nM.

Regarding `C[C@H](NC(=O)c1cscn1)[C@H](Oc1ccc(C(=O)N[C@H]2CCCN(C(=O)[C@H]3COC(=O)C3)C2)nc1)c1ccc(C2CC2)cc1` [Compound 7, N-[(1S,2R)-2-(4-cyclopropylphenyl)-1-methyl-2-[[6-[[(3S)-1-[(3R)-5-oxotetrahydrofuran-3-carbonyl]-3-piperidyl]carbamoyl]-3-pyridyl]oxy]ethyl]thiazole-4-carboxamide], the EC50 in data set [1] was under 100 nM. Also, the “HLM assay Eh (%)” value in data set [2] was “* (extraction ratio (Eh)>90%)”. For the same compound, the IC50 in data set [3] is under 100 nM.

For `Cc1cc(C(=O)N[C@@H](C)[C@H](Oc2ccc(C(=O)N[C@H]3CCCN(C(=O)[C@H]4COC(=O)C4)C3)nc2)c2ccc(C3CC3)cc2)on1` [Compound 8, N-[(1S,2R)-2-(4-cyclopropylphenyl)-1-methyl-2-[[6-[[(3S)-1-[(3R)-5-oxotetrahydrofuran-3-carbonyl]-3-piperidyl]carbamoyl]-3-pyridyl]oxy]ethyl]-3-methylisoxazole-5-carboxamide], the EC50 in data set [1] is under 100 nM. Also, in data set [2], the “HLM assay Eh (%)” value is reported as “* (extraction ratio (Eh)>90%)”. Further, in data set [3], the IC50 was under 100 nM.

In turn, `C[C@H](NC(=O)c1cnco1)[C@H](Oc1ccc(C(=O)N[C@H]2CCCN(C(=O)[C@H]3COC(=O)C3)C2)nc1)c1ccc(C2CC2)cc1` [Compound 9, N-[(1S,2R)-2-(4-cyclopropylphenyl)-1-methyl-2-[[6-[[(3S)-1-[(3R)-5-oxotetrahydrofuran-3-carbonyl]-3-piperidyl]carbamoyl]-3-pyridyl]oxy]ethyl]oxazole-5-carboxamide] showed an EC50 in data set [1] of under 100 nM. Besides, the “HLM assay Eh (%)” value in data set [2] was “* (extraction ratio (Eh)>90%)”. In addition, the IC50 in data set [3] fell in the range of 100 to 300 nM.

Take `CC[C@H](O)C(=O)N[C@@H](C)[C@H](Oc1ccc(C(=O)N[C@H]2CCCN(C(=O)[C@H]3COC(=O)C3)C2)nc1)c1ccc(C2CC2)cc1` [Compound 10, 5-[(1R,2S)-1-(4-cyclopropylphenyl)-2-[[(2S)-2-hydroxybutanoyl]amino]propoxy]-N-[(3S)-1-[(3R)-5-oxotetrahydrofuran-3-carbonyl]-3-piperidyl]pyridine-2-carboxamide]: in data set [1], the EC50 was under 100 nM. Moreover, the “HLM assay Eh (%)” value in data set [2] is recorded as “* (extraction ratio (Eh)>90%)”. Further, the IC50 in data set [3] lay in the range of 100 to 300 nM.

As to `C[C@H](NC(=O)[C@@H](C)O)[C@H](Oc1ccc(C(=O)N[C@H]2CCCN(C(=O)[C@H]3COC(=O)C3)C2)nc1)c1ccc(C2CC2)cc1` [Compound 11, 5-[(1R,2S)-1-(4-cyclopropylphenyl)-2-[[(2R)-2-hydroxypropanoyl]amino]propoxy]-N-[(3S)-1-[(3R)-5-oxotetrahydrofuran-3-carbonyl]-3-piperidyl]pyridine-2-carboxamide], the EC50 in data set [1] is under 100 nM. In addition, the “HLM assay Eh (%)” value in data set [2] is “* (extraction ratio (Eh)>90%)”. The IC50 in data set [3] is over 300 nM.

The compound `C[C@H](NC(=O)c1ccno1)[C@H](Oc1ccc(C(=O)N[C@H]2CCCN(C(=O)[C@H]3COC(=O)C3)C2)nc1)c1ccc(C2CC2)cc1` [Compound 12, N-[(1S,2R)-2-(4-cyclopropylphenyl)-1-methyl-2-[[6-[[(3S)-1-[(3R)-5-oxotetrahydrofuran-3-carbonyl]-3-piperidyl]carbamoyl]-3-pyridyl]oxy]ethyl]isoxazole-5-carboxamide] returned an EC50 in data set [1] of under 100 nM. Also, the “HLM assay Eh (%)” value in data set [2] is given as “* (extraction ratio (Eh)>90%)”. The IC50 in data set [3] is under 100 nM.

`Cc1ccc([C@@H](Oc2ccc(C(=O)N[C@@H]3CCCN(C(=O)[C@H]4COC(=O)C4)C3)nc2)[C@H](C)NC(=O)C(F)(F)F)cc1` [Compound 59, N-[(3R)-1-[(3R)-5-oxotetrahydrofuran-3-carbonyl]-3-piperidyl]-5-[(1R,2S)-1-(p-tolyl)-2-[(2,2,2-trifluoroacetyl)amino]propoxy]pyridine-2-carboxamide] had an EC50 in data set [1] of under 100 nM. In data set [2], the “HLM assay Eh (%)” value is recorded as “** (50%<extraction ratio (Eh)<90%)”.
